According to ChEMBL document CHEMBL1201862, “PubChem BioAssay data set” (2004):
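Five compound concentrations were applied to cells in 96-well plates for 48 hours; endpoints were derived by simple linear interpolation of the resulting dose-response curve. At the GI50, growth is halved.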 Active and inactive are the calls of the source. No stated cut-off is given here; in the data, active = GI50 up to about 1.1 µM and inactive = higher.

What was measured:
Test in all cases: growth of human tumour cells (NCI), 48 h
SW-620 = tested on: SW-620
UO-31 = tested on: UO-31
IGROV-1 = tested on: IGROV-1
ACHN = tested on: ACHN
SN12C = tested on: SN12C
A549 = tested on: A549
MDA-MB-435 = tested on: MDA-MB-435
LOX IMVI = tested on: LOX IMVI
SR = tested on: SR
RPMI-8226 = tested on: RPMI-8226
SF-539 = tested on: SF-539
MCF7 = tested on: MCF7
HOP-62 = tested on: HOP-62
MDA-N = tested on: MDA-N
HCT-15 = tested on: HCT-15
TK-10 = tested on: TK-10
SNB-19 = tested on: SNB-19
CCRF-CEM = tested on: CCRF-CEM
COLO 205 = tested on: COLO 205

SMILES	GI50 (SW-620)	GI50 (UO-31)	GI50 (IGROV-1)	GI50 (ACHN)	GI50 (SN12C)	GI50 (A549)	GI50 (MDA-MB-435)	GI50 (LOX IMVI)	GI50 (SR)	GI50 (RPMI-8226)	GI50 (SF-539)	GI50 (MCF7)	GI50 (HOP-62)	GI50 (MDA-N)	GI50 (HCT-15) [µM]	GI50 (TK-10)	GI50 (SNB-19)	GI50 (CCRF-CEM)	GI50 (COLO 205)
COc1ccccc1NC(=O)C(=O)C(C#N)CC(C)(C)C=O (configuration not stated)	> 100 µM (inactive)	> 100 µM (inactive)	> 100 µM (inactive)	> 100 µM (inactive)	> 100 µM (inactive)	> 100 µM (inactive)	> 100 µM (inactive)	> 100 µM (inactive)	> 100 µM (inactive)	> 100 µM (inactive)	> 100 µM (inactive)	> 100 µM (inactive)	> 100 µM (inactive)	> 100 µM (inactive)	> 100	> 100 µM (inactive)	–	–	–
O[C@H]1[C@@H]2OC[C@@H](O)[C@H](OCc3ccccc3)[C@@](COCc3ccccc3)(O2)[C@@H]1OCc1ccccc1	18.5 µM (inactive)	16.7 µM (inactive)	13.9 µM (inactive)	16.7 µM (inactive)	14.7 µM (inactive)	17.1 µM (inactive)	17.3 µM (inactive)	18.5 µM (inactive)	38.5 µM (inactive)	10.4 µM (inactive)	15.5 µM (inactive)	19.3 µM (inactive)	17.2 µM (inactive)	15.4 µM (inactive)	16.4	17.2 µM (inactive)	16.4 µM (inactive)	17.4 µM (inactive)	18.2 µM (inactive)
Fc1ccc(OCc2nc3cc(C(F)(F)F)ccc3nc2-c2ccccc2)cc1	> 100 µM (inactive)	> 100 µM (inactive)	> 100 µM (inactive)	> 100 µM (inactive)	> 100 µM (inactive)	> 100 µM (inactive)	> 63.8 µM (inactive)	> 100 µM (inactive)	41.9 µM (inactive)	46.6 µM (inactive)	> 100 µM (inactive)	67.8 µM (inactive)	> 100 µM (inactive)	> 100 µM (inactive)	> 66.2	–	> 83 µM (inactive)	> 44.1 µM (inactive)	> 100 µM (inactive)
COc1cc(C2OC[C@@H]3C(=O)OC[C@H]23)cc(O)c1OC (some centres not stated)	> 100 µM (inactive)	> 100 µM (inactive)	> 100 µM (inactive)	> 100 µM (inactive)	> 100 µM (inactive)	> 100 µM (inactive)	> 100 µM (inactive)	> 100 µM (inactive)	> 100 µM (inactive)	> 100 µM (inactive)	> 100 µM (inactive)	> 100 µM (inactive)	–	> 100 µM (inactive)	> 100	> 100 µM (inactive)	> 100 µM (inactive)	> 100 µM (inactive)	> 100 µM (inactive)
CS/C(Nc1ccccc1)=C1\C(=O)N(c2ccccc2)N=C1C	> 100 µM (inactive)	> 100 µM (inactive)	–	–	> 100 µM (inactive)	> 100 µM (inactive)	> 100 µM (inactive)	> 100 µM (inactive)	> 100 µM (inactive)	> 100 µM (inactive)	> 100 µM (inactive)	> 100 µM (inactive)	–	> 100 µM (inactive)	> 100	> 100 µM (inactive)	> 100 µM (inactive)	> 100 µM (inactive)	> 100 µM (inactive)
O=C(Nc1ccccc1F)c1cc2ccc(O)cc2o/c1=N\c1cccc(F)c1	9.04 µM (inactive)	13 µM (inactive)	3.66 µM (inactive)	9.89 µM (inactive)	–	7.98 µM (inactive)	14.8 µM (inactive)	9.89 µM (inactive)	12.9 µM (inactive)	3.24 µM (inactive)	17.5 µM (inactive)	15.1 µM (inactive)	19 µM (inactive)	14.6 µM (inactive)	10.2	–	15.9 µM (inactive)	3.31 µM (inactive)	29.7 µM (inactive)
NC1=C(N2CCCCC2)C(=O)NC2=N/C(=C\c3ccccc3)C(=O)N21	> 100 µM (inactive)	> 100 µM (inactive)	> 100 µM (inactive)	> 100 µM (inactive)	> 100 µM (inactive)	> 100 µM (inactive)	> 100 µM (inactive)	> 100 µM (inactive)	43.7 µM (inactive)	> 100 µM (inactive)	> 100 µM (inactive)	> 100 µM (inactive)	–	> 100 µM (inactive)	> 100	> 100 µM (inactive)	> 100 µM (inactive)	> 100 µM (inactive)	> 100 µM (inactive)
Fc1cc(C2=Nn3c(COc4ccccc4Cl)nnc3S/C2=C\c2ccc(Cl)cc2)c(Cl)cc1Cl	3.54 µM (inactive)	6.4 µM (inactive)	3.8 µM (inactive)	4.66 µM (inactive)	–	–	2.26 µM (inactive)	3.92 µM (inactive)	4.39 µM (inactive)	3.08 µM (inactive)	5.6 µM (inactive)	5.14 µM (inactive)	15.8 µM (inactive)	2.23 µM (inactive)	3.72	11.6 µM (inactive)	–	9.04 µM (inactive)	–
